Test results as given in PMC10535219, “Discovery and Potential Utility of a Novel Non-Invasive Ocular Delivery Platform” (Pharmaceutics, 2023).
Like-named read-outs stand apart in the source and are kept apart here.

Test: Biodisposition of JV-DE1 and JV-MD2 delivered via NIODP (periorbital skin) in non-human primates
Assay type: in vivo, cynomolgus monkeys
Details: for % Administered Dose, Retina: endogenous DHA subtracted; for Cmax / concentration at 0.5 h / concentration at 24 h / concentration at 3 h / concentration at 6 h: cynomolgus monkey, topical
Method: All experiments were performed at Medicilon. […] A pen brush was used to dose each formulation with three to four circular motions for even distribution. The doses of the test articles were selected based on their solubility/concentration with the maximum deliverable volume on the periorbital skin of the animals. The administered dose was calculated by the weight difference of the pen brush before and after administration. Animals were restrained from eye rubbing in restraint chairs for 2 h after dosing, with access to food and drink. A blood sample was collected from one of the study animals at pre-dosing. For every time point of 0.5, 3, 6, and 24 h post-dose, one animal was euthanized and the ocular tissues (upper eyelid, cornea, retina, and vitreous humor) of both eyes were collected. Plasma samples were collected before each euthanization.
For the convenience of tissue processing and sample extraction, only upper eyelids were collected to represent the entirety of the periorbital tissue. Ocular tissues were homogenized by adding a 9-fold volume of 50% methanol/H2O per gram of tissue. For the LC-MS/MS sample preparation, a 50 μL aliquot of plasma, aqueous humor, vitreous humor, or tissue homogenate was thoroughly mixed with a 250 μL extraction solution of CHCl3/EtOH (1:1); then, a 210 μL supernatant of the samples was transferred to a 96-well plate after centrifugation. The samples were evaporated in nitrogen gas (N2) until dried. Each sample was redissolved in 200 μL MeOH, of which 2 µL was injected for the LC-MS/MS analysis.
The LC system was the same as that described in Section 2. The MS analysis was performed using a Triple Quad 5500 with an ESI ion source, and the data acquisition and control system were Analyst 1.6.3 software from Applied Biosystems/MDS Sciex.
The LC/MS conditions for JV-DE1 are described in Supplementary Table S2. The LC conditions were as follows: ACQUITY UPLC ® BEH C18 1.7 μm, 2.1 mm × 50 mm; the mobile phase Column A, 0.1% formic acid in water; and Column B, 0.1% formic acid in acetonitrile. The flow rate was 0.6 ml/min, the column temperature was 50 °C, and the injection volume was 2 µL. The MS conditions were as follows: scan type, positive MRM; ion source, turbo spray; ionization model, ESI; nebulizer gas 1, 55 psi; gas 2, 55 psi; curtain gas, 40 psi; CAD, 10; ionspray voltage, 5500 V; and temperature, 550 °C.
The LC/MS conditions for JV-MD2 (DHA) are described in Supplementary Table S3. The LC conditions were as follows: ACQUITY UPLC® BEH C18 1.7 μm, 2.1 mm × 50 mm; the mobile phase Column A, […] NH4AC in H2O; and Column B, CAN. The flow rate was 0.5 mL/min, the column temperature was 40 °C, and the injection volume was 4 µL. The MS conditions were as follows: scan type, negative MRM; ion source, turbo spray; ionization model, ESI; nebulizer gas 1, 55 psi; gas 2, 55 psi; curtain gas, 40 psi; CAD, 9; ionspray voltage, 5500 V; and temperature, 550 °C.

[1] = JV-MD2, monkey, NIODP OS, 6568 μg/eye, 0.5 h
[2] = JV-MD2, monkey, NIODP OS, 6747 μg/eye, 24 h
[3] = JV-MD2, monkey, NIODP OS, 6768 μg/eye, 3 h
[4] = JV-MD2, monkey, NIODP OS, 7018 μg/eye, 6 h
[5] = JV-MD2, monkey, NIODP, within 30 min of dosing

Structure (SMILES): CC/C=C\C/C=C\C/C=C\C/C=C\C/C=C\C/C=C\CCC(=O)O [JV-MD2, cis-4,7,10,13,16,19-docosahexaenoic acid]
- concentration in vitreous humor (JV-MD2, monkey, NIODP 6775 µg/eye, all timepoints except 24 h, LLOQ 0.5 µg/mL): below BLQ
- % Administered Dose, Cornea [1]: 0.0283%
- % Administered Dose, Eyelid/periorbital skin [1]: 0.4288%
- % Administered Dose, Vitreous humor [1]: 0.0000%
- % Administered Dose, Retina [1]: 0.0343%
- % Administered Dose, Cornea [2]: 0.0173%
- % Administered Dose, Eyelid/periorbital skin [2]: 0.0197%
- % Administered Dose, Vitreous humor [2]: 0.0236%
- % Administered Dose, Retina [2]: 0.0175%
- % Administered Dose, Cornea [3]: 0.0109%
- % Administered Dose, Eyelid/periorbital skin [3]: 0.3844%
- % Administered Dose, Vitreous humor [3]: 0.0000%
- % Administered Dose, Retina [3]: 0.0264%
- % Administered Dose, Cornea [4]: 0.0149%
- % Administered Dose, Eyelid/periorbital skin [4]: 0.0149%
- % Administered Dose, Vitreous humor [4]: 0.0000%
- % Administered Dose, Retina [4]: 0.0228%
- maximum percentage of the administered dose, cornea [5]: 0.0283%
- maximum percentage of the administered dose, eyelid/periorbital skin [5]: 0.4288%
- maximum percentage of the administered dose, retina [5]: 0.0343%
- Cmax (cornea, JV-MD2, monkey, single dose about 7 mg via NIODP, read-out: Cmax in cornea): 66000 ng/g
- Cmax (retina, JV-MD2, NHP, about 7 mg/eye via NIODP, read-out: retinal Cmax): ~338 µM
- Cmax (retina, JV-MD2, monkey, single dose about 7 mg (6775 µg/eye) via NIODP, endogenous level 17 µg/g, read-out: Cmax in retina): 111000 ng/g
- concentration at 0.5 h (cynomolgus, cornea of the dosed left eye (OS), JV-MD2, monkey, NIODP OS, 6568 μg/eye, 0.5 h, endogenous BLQ, read-out: Drug in OS Tissues, Cornea): 66000 ng/g
- concentration at 24 h (cynomolgus, cornea of the dosed left eye (OS), JV-MD2, monkey, NIODP OS, 6747 μg/eye, 24 h, endogenous BLQ, read-out: Drug in OS Tissues, Cornea): 26000 ng/g
- concentration at 3 h (cynomolgus, cornea of the dosed left eye (OS), JV-MD2, monkey, NIODP OS, 6768 μg/eye, 3 h, endogenous BLQ, read-out: Drug in OS Tissues, Cornea): 22000 ng/g
- concentration at 6 h (cynomolgus, cornea of the dosed left eye (OS), JV-MD2, monkey, NIODP OS, 7018 μg/eye, 6 h, endogenous BLQ, read-out: Drug in OS Tissues, Cornea): 22000 ng/g
- concentration at 0.5 h (cynomolgus, plasma, JV-MD2 21.5% w/w, monkey, NIODP periorbital skin OS, 6568 μg/eye, 0.5 h, pre-dose baseline 2, read-out: Drug in plasma): 2000 ng/mL
- concentration at 24 h (cynomolgus, plasma, JV-MD2 21.5% w/w, monkey, NIODP periorbital skin OS, 6747 μg/eye, 24 h, pre-dose baseline 2, read-out: Drug in plasma): 1000 ng/mL
- concentration at 3 h (cynomolgus, plasma, JV-MD2 21.5% w/w, monkey, NIODP periorbital skin OS, 6768 μg/eye, 3 h, pre-dose baseline 2, read-out: Drug in plasma): 3000 ng/mL
- concentration at 6 h (cynomolgus, plasma, JV-MD2 21.5% w/w, monkey, NIODP periorbital skin OS, 7018 μg/eye, 6 h, pre-dose baseline 2, read-out: Drug in plasma): 2000 ng/mL
- Cmax (cynomolgus, retina, 6775 µg per eye, JV-MD2, NHP, about 7 mg/eye via NIODP, read-out: retinal Cmax): 338 µM
- concentration at 0.5 h (cynomolgus, retina, JV-MD2, monkey, NIODP OS, 6568 μg/eye, 0.5 h, endogenous DHA 17 µg/g, read-out: Drug in OS Tissues, Retina): 111000 ng/g
- concentration at 24 h (cynomolgus, retina, JV-MD2, monkey, NIODP OS, 6747 μg/eye, 24 h, endogenous DHA 17 µg/g, read-out: Drug in OS Tissues, Retina): 47000 ng/g
- concentration at 3 h (cynomolgus, retina, JV-MD2, monkey, NIODP OS, 6768 μg/eye, 3 h, endogenous DHA 17 µg/g, read-out: Drug in OS Tissues, Retina): 67000 ng/g
- concentration at 6 h (cynomolgus, retina, JV-MD2, monkey, NIODP OS, 7018 μg/eye, 6 h, endogenous DHA 17 µg/g, read-out: Drug in OS Tissues, Retina): 79000 ng/g
- concentration at 0.5 h (cynomolgus, upper eyelid (periorbital skin) of the dosed left eye (OS), JV-MD2, monkey, NIODP OS, 6568 μg/eye, 0.5 h, endogenous BLQ, read-out: Drug in OS Tissues, Eyelid/periorbital skin): 381000 ng/g
- concentration at 24 h (cynomolgus, upper eyelid (periorbital skin) of the dosed left eye (OS), JV-MD2, monkey, NIODP OS, 6747 μg/eye, 24 h, endogenous BLQ, read-out: Drug in OS Tissues, Eyelid/periorbital skin): 16000 ng/g
- concentration at 3 h (cynomolgus, upper eyelid (periorbital skin) of the dosed left eye (OS), JV-MD2, monkey, NIODP OS, 6768 μg/eye, 3 h, endogenous BLQ, read-out: Drug in OS Tissues, Eyelid/periorbital skin): 420000 ng/g
- concentration at 6 h (cynomolgus, upper eyelid (periorbital skin) of the dosed left eye (OS), JV-MD2, monkey, NIODP OS, 7018 μg/eye, 6 h, endogenous BLQ, read-out: Drug in OS Tissues, Eyelid/periorbital skin): 11000 ng/g
- concentration at 24 h (cynomolgus, vitreous humor, 6775 µg per eye, JV-MD2, monkey, NIODP 6775 µg/eye, 24 h post-dose, read-out: concentration in vitreous humor): 2000 ng/mL
- concentration at 0.5 h (cynomolgus, vitreous humor, JV-MD2, monkey, NIODP OS, 6568 μg/eye, 0.5 h, BLQ given a value of 0, LLOQ 0.5 µg/mL, read-out: Drug in OS Tissues, Vitreous humor): 0 ng/g
- concentration at 24 h (cynomolgus, vitreous humor, JV-MD2, monkey, NIODP OS, 6747 μg/eye, 24 h, read-out: Drug in OS Tissues, Vitreous humor): 2000 ng/g
- concentration at 3 h (cynomolgus, vitreous humor, JV-MD2, monkey, NIODP OS, 6768 μg/eye, 3 h, BLQ given a value of 0, LLOQ 0.5 µg/mL, read-out: Drug in OS Tissues, Vitreous humor): 0 ng/g
- concentration at 6 h (cynomolgus, vitreous humor, JV-MD2, monkey, NIODP OS, 7018 μg/eye, 6 h, BLQ given a value of 0, LLOQ 0.5 µg/mL, read-out: Drug in OS Tissues, Vitreous humor): 0 ng/g
